Source: ChEMBL document CHEMBL1201862, “PubChem BioAssay data set” (2004)
Active and inactive are the calls of the source.

Experiments:
[1] = system: Streptococcus sp. 'group A'; assay: growth inhibition of control SK(-) GAS strain, dose response, counter-screen for streptokinase expression inhibitor project, luminescence, kanamycin, BacTiterGlo, confirmation (AID 1900); format: functional, organism-based
[2] = biological target: T1, Streptokinase A (Streptococcus pyogenes serotype M1, UniProt P10520); assay: S. pyogenes streptokinase expression inhibitors, potency, dose response, plasminogen activation absorbance, OD405 (AID 1914); format: functional, Streptococcus pyogenes M1 GAS;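 note: secreted streptokinase activity via plasminogen activation per viability signal from cell pellet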
T1 sequence (P10520 whole entry): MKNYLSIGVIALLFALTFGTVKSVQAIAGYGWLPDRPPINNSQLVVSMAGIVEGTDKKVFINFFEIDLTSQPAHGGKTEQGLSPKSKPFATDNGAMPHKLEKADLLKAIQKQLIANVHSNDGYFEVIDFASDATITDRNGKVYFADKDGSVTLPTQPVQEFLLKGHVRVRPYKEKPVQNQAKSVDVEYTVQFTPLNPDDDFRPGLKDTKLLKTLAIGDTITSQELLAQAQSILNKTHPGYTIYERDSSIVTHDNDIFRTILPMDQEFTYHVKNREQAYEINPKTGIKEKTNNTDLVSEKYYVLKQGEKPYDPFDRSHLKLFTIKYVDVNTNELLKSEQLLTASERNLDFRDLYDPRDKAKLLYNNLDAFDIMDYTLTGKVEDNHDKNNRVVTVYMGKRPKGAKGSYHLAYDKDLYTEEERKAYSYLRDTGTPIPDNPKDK

[3] = system: Streptococcus; assay: Group A Streptococcus viability loss, dose response, counter-screen for streptokinase expression inhibitor project, luminescence, BacTiterGlo (AID 1915); format: functional, organism-based;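 note: potency for reduction of bacterial viability or growth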
[4] = biological target: Dual specificity tyrosine-phosphorylation-regulated kinase 1A (Rattus norvegicus, UniProt Q63470); format: biochemical, Homo sapiens
[5] = system: HeLa; assay: HeLa cell cytotoxicity, dose response, cytotoxicity control for MITF activator project, CellTiter-Glo luminescence, cherry-pick samples (AID 540259); format: functional, cell-based; conditions: Homo sapiens
[6] = biological target: Phospholipase D1 (Homo sapiens, UniProt Q13393); assay: PLD1 inhibitor potency in cells, dose response (AID 602151); format: functional;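 note: cellular PLD1 assay in Calu-1 cells stimulated with PMA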
[7] = biological target: Phospholipase D2 (Homo sapiens, UniProt O14939); assay: PLD2 inhibitor potency in cells, dose response (AID 602147); format: functional;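 note: cellular assay in HEK293 cells overexpressing GFP-tagged PLD2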
[8] = microbe, parasite or virus in culture; format: functional; conditions: Mycobacterium tuberculosis
[9] = growth suppression of PTEN-null colon cells, dose response, cell-based, HCT116 PTEN knockout (AID 1047); format: functional;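 note: HCT116 colon tumor cells with PTEN knocked out; cells exposed to compound for 60 hours before readout; potency for loss of cell viability measured by luminescence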
[10] = growth suppression of beta-catenin-knockout colon cells, dose response, cell-based, HCT116, human colon tumor (AID 1045); format: functional;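 note: HCT116 colon tumor cells with beta catenin knocked out; cells exposed to compound for 60 hours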
[11] = THP-1 cell cytotoxicity, dose response, cytotoxicity control for non-replicating M. tuberculosis project (AID 489025); format: functional
[12] = Luminescence Cell-Based Dose Retest to Confirm Inhibitors of Cancer Stem Cells. [Related pubchem assays (depositor defined):AID2717, AID2721]; format: functional, Homo sapiens; conditions: Homo sapiens
[13] = HepG2 cell cytotoxicity, dose response, cytotoxicity control for non-replicating M. tuberculosis project (AID 489018); format: functional; conditions: Mycobacterium tuberculosis
[14] = Vero E6 cell cytotoxicity, dose response, cytotoxicity control for non-replicating M. tuberculosis project, secondary assay (AID 492998); format: functional, VeroE6; conditions: Vero C1008
[15] = biological target: Nonstructural protein 1 (Influenza A virus, UniProt Q194T2); format: functional, Influenza A virus (A/California/07/2009(H1N1))
[16] = biological target: T2, Microphthalmia-associated transcription factor (Homo sapiens, UniProt O75030); assay: TRPM1 promoter luciferase signal decrease, dose response, MITF inhibitor project, cell-based, SK-MEL-5, cherry-picked, set 3 (AID 493073); format: functional
T2 sequence (O75030 whole entry): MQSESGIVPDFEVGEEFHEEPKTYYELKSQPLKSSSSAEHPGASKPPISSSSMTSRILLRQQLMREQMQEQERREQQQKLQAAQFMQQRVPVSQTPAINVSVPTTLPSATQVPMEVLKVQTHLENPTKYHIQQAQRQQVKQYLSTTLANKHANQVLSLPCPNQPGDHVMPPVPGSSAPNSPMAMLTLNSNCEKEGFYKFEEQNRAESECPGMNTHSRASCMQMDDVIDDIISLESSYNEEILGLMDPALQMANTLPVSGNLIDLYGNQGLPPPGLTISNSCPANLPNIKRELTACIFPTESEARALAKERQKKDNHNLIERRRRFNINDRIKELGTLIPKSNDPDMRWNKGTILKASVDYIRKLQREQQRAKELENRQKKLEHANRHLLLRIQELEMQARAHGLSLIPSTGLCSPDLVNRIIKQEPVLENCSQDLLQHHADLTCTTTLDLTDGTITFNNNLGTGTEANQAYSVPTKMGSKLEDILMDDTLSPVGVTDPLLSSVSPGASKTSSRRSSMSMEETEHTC

[17] = cells; format: functional
[18] = system: A-375; assay: A375 melanoma cell viability reduction, dose response, counter-screen for MITF modulator project, cherry-pick samples, set 2 (AID 540335); format: functional, cell-based; conditions: Homo sapiens
[19] = biological target: T3, DNA repair protein RAD52 homolog (Homo sapiens, UniProt P43351); format: functional, biochemical
T3 sequence (P43351 whole entry): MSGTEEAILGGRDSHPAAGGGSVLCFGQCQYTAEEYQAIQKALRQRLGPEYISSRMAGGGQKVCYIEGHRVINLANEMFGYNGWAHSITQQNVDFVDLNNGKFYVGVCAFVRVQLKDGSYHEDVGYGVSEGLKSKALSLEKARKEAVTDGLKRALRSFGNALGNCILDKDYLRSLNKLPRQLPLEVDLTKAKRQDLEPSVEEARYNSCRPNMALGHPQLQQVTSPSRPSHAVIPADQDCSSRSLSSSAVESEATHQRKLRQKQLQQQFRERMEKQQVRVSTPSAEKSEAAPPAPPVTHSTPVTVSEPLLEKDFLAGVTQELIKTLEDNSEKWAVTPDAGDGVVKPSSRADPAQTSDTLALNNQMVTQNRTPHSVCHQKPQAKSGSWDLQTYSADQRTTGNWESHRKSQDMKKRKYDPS

[20] = biological target: Voltage-gated inwardly rectifying potassium channel KCNH2 (Homo sapiens, UniProt Q12809); conditions: Potency;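 note: confirmatory quantitative high-throughput screen measuring inhibition of hERG channel activity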
[21] = biological target: Envelope glycoprotein gp160 (Human immunodeficiency virus 1, UniProt Q6QLK5); assay: inhibitors of HIV fusion peptide binding, primary screen, biochemical, uHTS, fluorescence dequenching (AID 1986)
[22] = biological target: T4, RNA-binding protein pos-1 (Caenorhabditis elegans, UniProt G5EF15); assay: inhibitors of POS-1/mex-3 RNA binding, dose response, biochemical, fluorescence polarization (AID 1964);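 note: purified POS-1 fused to maltose binding protein made in E. coli; potency of compounds blocking POS-1 binding to fluorescent RNA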
T4 sequence (G5EF15 whole entry): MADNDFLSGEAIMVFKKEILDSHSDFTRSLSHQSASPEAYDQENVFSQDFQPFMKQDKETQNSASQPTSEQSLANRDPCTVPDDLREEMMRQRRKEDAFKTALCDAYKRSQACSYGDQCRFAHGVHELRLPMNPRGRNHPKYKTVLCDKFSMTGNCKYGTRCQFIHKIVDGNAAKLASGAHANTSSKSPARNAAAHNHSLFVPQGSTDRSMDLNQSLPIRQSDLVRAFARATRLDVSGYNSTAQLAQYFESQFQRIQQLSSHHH

[23] = biological target: Large T antigen (Simian virus 40, UniProt P03070); format: functional, Betapolyomavirus macacae;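 note: Confirmatory-stage PubChem screen for compounds that inhibit SV40 T antigen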
[24] = biological target: NS3 (Hepatitis C virus, UniProt A3EZJ3); assay: PubChem AID 2173; set-up: species or system Hepacivirus hominis
[25] = biological target: Intestinal-type alkaline phosphatase (Mus musculus, UniProt P24822); assay: PubChem AID 488785; format: functional
[26] = biological target: Beta-adrenergic receptor kinase 1 (Homo sapiens, UniProt P25098); assay: aptamer displacement from bead-bound GRK2 – biochemical, cherry pick 1, bead flow cytometry, dose response (AID 504500)
[27] = biological target: T5, Alkaline phosphatase, tissue-nonspecific isozyme (Homo sapiens, UniProt P05186); assay: TNAP enzyme inhibition by screening hits, dose response, selectivity assay for mouse IAP inhibitor project, biochemical, human TNAP, uHTS hits (AID 488906); format: functional
T5 sequence (P05186 whole entry): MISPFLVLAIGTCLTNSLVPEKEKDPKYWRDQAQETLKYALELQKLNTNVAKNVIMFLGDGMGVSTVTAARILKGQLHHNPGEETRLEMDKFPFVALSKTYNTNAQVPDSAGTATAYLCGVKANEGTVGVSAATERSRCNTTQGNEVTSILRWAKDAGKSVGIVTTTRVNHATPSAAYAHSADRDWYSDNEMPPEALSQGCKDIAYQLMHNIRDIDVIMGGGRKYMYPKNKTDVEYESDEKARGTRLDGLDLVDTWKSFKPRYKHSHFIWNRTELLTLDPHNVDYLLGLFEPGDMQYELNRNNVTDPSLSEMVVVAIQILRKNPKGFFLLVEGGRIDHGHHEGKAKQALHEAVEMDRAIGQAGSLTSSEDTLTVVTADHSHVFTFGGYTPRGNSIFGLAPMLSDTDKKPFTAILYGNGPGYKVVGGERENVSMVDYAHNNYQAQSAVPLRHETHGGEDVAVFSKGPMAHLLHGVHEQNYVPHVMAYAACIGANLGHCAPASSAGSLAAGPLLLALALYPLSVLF

[28] = biological target: Intestinal-type alkaline phosphatase (Homo sapiens, UniProt P09923); assay: inhibition of human intestinal alkaline phosphatase – biochemical, dose response (AID 488876); format: functional
[29] = biological target: Genome polyprotein (dengue virus type 2, UniProt P29990); assay: Dengue-2 NS5 methyltransferase inhibitors, primary screen, biochemical, confirmation dose response (AID 588689); format: functional
[30] = biological target: T6, Endoribonuclease toxin MazF (Escherichia coli K-12, UniProt P0AE70); assay: MazF toxin RNase activators, dose response, biochemical, fluorescence, single-stranded RNA substrate, uHTS hits (AID 588481); format: functional
[31] = biological target: T6, Endoribonuclease toxin MazF; assay: fluorescent RNA oligo signal without MazF, dose response, counter-screen for MazEF activator project, biochemical, fluorescence, single-stranded RNase substrate (AID 588502); format: functional
[32] = biological target: T7, Sentrin-specific protease 1 (Homo sapiens, UniProt Q9P0U3); assay: potency of human SENP1 inhibitors, dose response, biochemical, kinetic FRET (AID 651697); format: functional; conditions: read-out: IC50_Mean
[33] = biological target: T7, Sentrin-specific protease 1; assay: Dose response confirmation of small molecule inhibitors of the catalytic domain of the SUMO protease, SENP1 in a FRET assay.; format: functional; conditions: read-out: IC50_Mean

T7 sequence (Q9P0U3 whole entry, the tested form may be a part): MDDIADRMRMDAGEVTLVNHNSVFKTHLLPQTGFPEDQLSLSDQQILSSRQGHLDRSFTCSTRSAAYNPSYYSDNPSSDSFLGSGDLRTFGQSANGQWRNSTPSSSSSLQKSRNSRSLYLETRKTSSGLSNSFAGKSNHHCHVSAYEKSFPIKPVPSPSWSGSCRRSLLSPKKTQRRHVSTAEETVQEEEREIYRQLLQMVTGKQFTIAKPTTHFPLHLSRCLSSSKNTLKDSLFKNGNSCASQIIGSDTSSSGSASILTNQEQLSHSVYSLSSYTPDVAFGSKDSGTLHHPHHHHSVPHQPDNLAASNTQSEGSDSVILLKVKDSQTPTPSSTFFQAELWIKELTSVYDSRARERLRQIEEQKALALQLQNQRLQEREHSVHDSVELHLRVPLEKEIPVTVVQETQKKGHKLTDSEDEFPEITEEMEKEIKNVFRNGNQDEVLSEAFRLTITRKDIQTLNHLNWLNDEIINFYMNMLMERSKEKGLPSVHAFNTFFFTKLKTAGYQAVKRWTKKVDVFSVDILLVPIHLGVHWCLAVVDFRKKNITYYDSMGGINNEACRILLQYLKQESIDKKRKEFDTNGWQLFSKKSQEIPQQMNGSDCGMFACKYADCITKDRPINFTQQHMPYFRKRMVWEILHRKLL
T6 sequence (P0AE70 whole entry): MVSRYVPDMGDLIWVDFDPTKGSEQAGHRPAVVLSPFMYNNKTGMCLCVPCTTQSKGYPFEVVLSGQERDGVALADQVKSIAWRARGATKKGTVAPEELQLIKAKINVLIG
Sequence of Nonstructural protein 1 (Q194T2 whole entry): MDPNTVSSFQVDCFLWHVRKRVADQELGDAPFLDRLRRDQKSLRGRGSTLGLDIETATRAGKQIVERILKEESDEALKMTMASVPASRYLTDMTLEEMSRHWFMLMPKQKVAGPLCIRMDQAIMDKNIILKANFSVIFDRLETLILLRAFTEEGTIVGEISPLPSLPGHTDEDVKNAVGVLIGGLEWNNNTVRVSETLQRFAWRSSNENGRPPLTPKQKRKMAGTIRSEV
Sequence of Intestinal-type alkaline phosphatase (Mus musculus, UniProt P24822) (P24822 whole entry): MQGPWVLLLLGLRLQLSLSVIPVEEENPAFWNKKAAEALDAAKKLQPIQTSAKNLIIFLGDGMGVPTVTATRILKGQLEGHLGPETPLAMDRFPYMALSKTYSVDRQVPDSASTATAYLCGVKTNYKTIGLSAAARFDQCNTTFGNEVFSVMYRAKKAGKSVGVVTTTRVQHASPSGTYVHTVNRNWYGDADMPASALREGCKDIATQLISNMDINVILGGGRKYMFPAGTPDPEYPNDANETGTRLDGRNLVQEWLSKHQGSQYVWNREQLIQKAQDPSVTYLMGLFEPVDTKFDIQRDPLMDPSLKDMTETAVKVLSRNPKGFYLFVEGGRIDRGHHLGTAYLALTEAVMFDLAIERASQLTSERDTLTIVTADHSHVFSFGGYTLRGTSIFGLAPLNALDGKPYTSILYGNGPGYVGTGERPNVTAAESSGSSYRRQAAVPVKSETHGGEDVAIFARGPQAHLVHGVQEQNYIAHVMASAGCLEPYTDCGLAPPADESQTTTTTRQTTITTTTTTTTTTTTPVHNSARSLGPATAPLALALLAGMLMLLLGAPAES
Sequence of Genome polyprotein (P29990 2492-3391 limits assumed): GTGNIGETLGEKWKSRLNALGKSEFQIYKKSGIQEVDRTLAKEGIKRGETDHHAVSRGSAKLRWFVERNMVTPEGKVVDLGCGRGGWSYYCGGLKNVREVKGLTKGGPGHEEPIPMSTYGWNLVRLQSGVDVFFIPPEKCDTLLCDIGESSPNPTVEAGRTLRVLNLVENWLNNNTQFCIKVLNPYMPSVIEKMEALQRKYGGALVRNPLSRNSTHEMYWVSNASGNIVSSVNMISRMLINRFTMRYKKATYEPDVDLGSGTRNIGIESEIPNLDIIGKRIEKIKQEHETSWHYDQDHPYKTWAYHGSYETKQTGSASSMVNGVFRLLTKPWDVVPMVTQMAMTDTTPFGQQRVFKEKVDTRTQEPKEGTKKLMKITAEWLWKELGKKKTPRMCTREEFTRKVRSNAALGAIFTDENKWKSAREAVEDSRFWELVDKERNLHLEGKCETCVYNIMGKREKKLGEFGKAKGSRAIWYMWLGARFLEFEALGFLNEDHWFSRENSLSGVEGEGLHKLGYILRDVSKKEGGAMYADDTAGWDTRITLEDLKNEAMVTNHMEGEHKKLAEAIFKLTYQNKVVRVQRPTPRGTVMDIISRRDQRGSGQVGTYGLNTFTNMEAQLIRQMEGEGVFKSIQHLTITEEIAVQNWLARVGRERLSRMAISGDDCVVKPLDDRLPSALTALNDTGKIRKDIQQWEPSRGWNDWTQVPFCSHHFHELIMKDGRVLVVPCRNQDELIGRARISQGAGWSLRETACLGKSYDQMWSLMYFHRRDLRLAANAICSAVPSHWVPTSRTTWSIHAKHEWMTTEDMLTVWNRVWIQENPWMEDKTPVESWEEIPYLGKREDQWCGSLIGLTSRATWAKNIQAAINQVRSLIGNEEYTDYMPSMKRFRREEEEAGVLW
Sequence of Phospholipase D1 (Q13393 whole entry): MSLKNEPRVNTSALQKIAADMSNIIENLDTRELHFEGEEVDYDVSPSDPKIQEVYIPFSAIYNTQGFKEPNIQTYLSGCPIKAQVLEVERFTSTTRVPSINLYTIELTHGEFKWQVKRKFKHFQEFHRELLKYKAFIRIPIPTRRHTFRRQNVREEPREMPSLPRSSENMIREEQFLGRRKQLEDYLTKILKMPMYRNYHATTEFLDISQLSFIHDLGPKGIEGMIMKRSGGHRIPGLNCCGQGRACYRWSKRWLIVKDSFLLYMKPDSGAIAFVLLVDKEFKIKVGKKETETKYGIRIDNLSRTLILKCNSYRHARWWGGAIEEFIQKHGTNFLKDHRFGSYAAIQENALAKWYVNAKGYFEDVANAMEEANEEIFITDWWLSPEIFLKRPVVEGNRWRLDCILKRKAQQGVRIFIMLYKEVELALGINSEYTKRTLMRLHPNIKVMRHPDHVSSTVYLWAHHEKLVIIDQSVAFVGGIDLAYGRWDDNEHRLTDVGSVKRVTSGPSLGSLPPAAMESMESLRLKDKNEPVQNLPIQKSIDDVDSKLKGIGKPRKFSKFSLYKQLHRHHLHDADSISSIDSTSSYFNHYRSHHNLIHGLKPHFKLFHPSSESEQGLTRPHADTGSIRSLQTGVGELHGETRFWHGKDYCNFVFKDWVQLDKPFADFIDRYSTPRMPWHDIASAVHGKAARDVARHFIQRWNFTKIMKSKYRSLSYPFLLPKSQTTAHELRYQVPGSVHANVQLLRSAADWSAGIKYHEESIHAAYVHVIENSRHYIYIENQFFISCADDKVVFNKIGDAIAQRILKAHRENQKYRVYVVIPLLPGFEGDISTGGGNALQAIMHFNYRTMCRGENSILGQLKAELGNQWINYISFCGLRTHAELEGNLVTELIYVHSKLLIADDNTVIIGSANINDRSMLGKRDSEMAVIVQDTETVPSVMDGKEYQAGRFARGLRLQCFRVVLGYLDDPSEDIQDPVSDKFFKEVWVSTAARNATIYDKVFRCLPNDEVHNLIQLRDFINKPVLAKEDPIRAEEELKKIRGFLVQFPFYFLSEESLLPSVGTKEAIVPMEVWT
Sequence of Intestinal-type alkaline phosphatase (Homo sapiens, UniProt P09923) (P09923 whole entry): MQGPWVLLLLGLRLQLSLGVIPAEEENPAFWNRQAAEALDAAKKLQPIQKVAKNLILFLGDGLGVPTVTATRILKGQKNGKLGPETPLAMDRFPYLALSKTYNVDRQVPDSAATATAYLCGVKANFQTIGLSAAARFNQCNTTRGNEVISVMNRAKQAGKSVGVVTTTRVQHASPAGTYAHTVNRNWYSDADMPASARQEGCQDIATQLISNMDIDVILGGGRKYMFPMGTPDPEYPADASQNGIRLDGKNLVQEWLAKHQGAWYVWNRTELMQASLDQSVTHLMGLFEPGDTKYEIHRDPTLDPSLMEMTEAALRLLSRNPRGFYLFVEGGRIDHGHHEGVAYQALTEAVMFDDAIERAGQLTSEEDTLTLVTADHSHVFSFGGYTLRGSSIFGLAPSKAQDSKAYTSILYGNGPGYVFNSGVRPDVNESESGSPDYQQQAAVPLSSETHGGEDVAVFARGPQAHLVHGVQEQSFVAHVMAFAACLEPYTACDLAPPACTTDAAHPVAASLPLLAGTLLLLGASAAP
Sequence of Envelope glycoprotein gp160 (Q6QLK5 whole entry, the tested form may be a part): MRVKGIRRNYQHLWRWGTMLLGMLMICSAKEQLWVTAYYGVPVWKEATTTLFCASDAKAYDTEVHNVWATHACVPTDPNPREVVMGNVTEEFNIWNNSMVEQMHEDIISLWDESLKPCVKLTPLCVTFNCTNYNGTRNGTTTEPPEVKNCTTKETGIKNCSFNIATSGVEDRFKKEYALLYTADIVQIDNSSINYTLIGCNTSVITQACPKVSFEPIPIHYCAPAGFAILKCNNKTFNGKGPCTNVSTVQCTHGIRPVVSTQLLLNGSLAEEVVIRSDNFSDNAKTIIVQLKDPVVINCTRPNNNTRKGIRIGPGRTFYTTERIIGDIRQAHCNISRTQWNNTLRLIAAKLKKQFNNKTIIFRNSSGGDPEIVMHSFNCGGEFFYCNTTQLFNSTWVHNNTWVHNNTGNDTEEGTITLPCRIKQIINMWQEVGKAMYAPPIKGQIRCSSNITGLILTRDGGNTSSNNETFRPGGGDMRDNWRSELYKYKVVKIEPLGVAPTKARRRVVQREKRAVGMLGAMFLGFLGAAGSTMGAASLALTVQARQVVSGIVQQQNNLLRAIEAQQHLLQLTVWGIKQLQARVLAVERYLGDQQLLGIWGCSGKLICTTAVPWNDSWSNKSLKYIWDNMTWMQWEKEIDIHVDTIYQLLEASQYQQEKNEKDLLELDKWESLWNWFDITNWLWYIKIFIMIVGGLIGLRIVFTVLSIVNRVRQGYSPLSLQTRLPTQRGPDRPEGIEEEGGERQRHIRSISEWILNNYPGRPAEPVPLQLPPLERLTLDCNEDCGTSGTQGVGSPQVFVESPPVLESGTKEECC

CC1CCc2c(C(=O)Nc3cccc(-c4nn[nH]n4)c3)csc2C1 (stereo not drawn)
EC50 [1]: 127 µM (active) | EC50 [2]: 27.3 µM (active) | EC50 [3]: > 150 µM (not active) | AC50 [4]: 8.35 µM (active)

COC(=O)c1ccc(/C=N/Nc2nc(C)c(C)s2)cc1
AC50 [5]: 69.8 µM (active)

O=C(NCCN1CCC(C(=O)NCCc2ccccn2)CC1)c1ccc2ccccc2c1
IC50 [6]: 20 µM (active) | IC50 [7]: 4.2 µM (active)

CCN(Cc1ccccc1)c1ccc(/C=N/N=C(N)N)cc1
CC50 [8]: 9.2 µM (active) | EC50 [9]: 3.27 µM (active) | EC50 [10]: 3.35 µM (active) | CC50 [11]: 7.49 µM (active) | AC50 [12]: 2.61 µM (active) | CC50 [13]: 7.93 µM (active) | CC50 [14]: 8.36 µM (active) | IC50 [15]: 39.3 µM (active) | AC50 [16]: 6.37 µM (active) | IC50 [17]: 10.9 µM (active) | AC50 [18]: 18.4 µM (active) | AC50 [19]: 6.26 µM (active)

Brc1cc(Br)c(Oc2cc(Br)c(Br)cc2Br)cc1Br
AC50 [20]: 17.8 µM (inconclusive)

COc1ccc(N2C(=O)/C(=C/c3ccco3)C(=O)NC2=S)cc1
IC50 [21]: 22.3 µM (active) | EC50 [22]: 5.3 µM (active) | IC50 [23]: 10.8 µM (active) | IC50 [24]: 4.61 µM (active) | IC50 [25]: 16.2 µM (active) | EC50 [26]: 7.83 µM (active) | IC50 [27]: 32.4 µM (active) | IC50 [28]: 46 µM (active) | IC50 [29]: > 100 µM (active)

O=C(CCN1C(=O)/C(=C/c2cccs2)SC1=S)NNC(=O)c1cccc(O)c1
EC50 [30]: > 99 µM (inactive) | EC50 [31]: > 99 µM (inactive) | IC50 [32]: 16.2 µM (active) | IC50 [33]: 21.9 µM (inactive)
